According to ChEMBL document CHEMBL3507680, “University of Dundee, Gates Library screen for HepG2 cell viability”:

Assay: Human HepG2 cell viability assay in 384 well format
Assay type: toxicity, cell-based
Parameters: dose 125 nL, time 70.5 hour; cytotoxicity at 70.5 h: concentration not given beside the values
Settings: HepG2 cells, read-out: Inhibition

| Compound | cytotoxicity at 70.5 h |
| --- | --- |
| COCC(=O)NCc1ccc(-c2ncncc2C(=O)N(C)C)cc1 | -2.25% |
| O=C(c1ccccn1)N1CCC(c2nc(O)cc(-c3ccncc3)n2)C1 (stereo not given) | -5.15% |
| Cc1cc(C)n(CC2CCCN2C(=O)c2cccc3[nH]ncc23)n1 (stereo not given) | -8.53% |
| COc1cccc(-c2noc(C3CCN(Cc4cccs4)C3)n2)c1 (stereo not given) | 8.44% |
| Nc1cc2c(nn1)CCN(C(=O)c1cccc3c1OCCO3)C2 | -14.7% |
| CCS(=O)(=O)N1Cc2c(Cn3cccc3)nn(C(C)C)c2C1 | -2.77% |
| COCc1cn(CC2CCN(Cc3nc(C)c[nH]3)CC2)nn1 | -8.76% |
| CCOc1cncc(N2CCN(c3ccccc3O)CC2)n1 | 13.6% |
| COc1ccnc(N2CCN(C(=O)CCc3cnn(C)c3)CC2)n1 | -11.9% |
| COc1cc2cc3c(nc2cc1OC)OCCN(Cc1cccs1)C3 | 28% |
| N[C@H]1CN(S(=O)(=O)c2cccnc2)C[C@@H]1C1CC1 | -4.49% |
| CCc1nc(CC)n(CC(=O)N(CC)CC)n1 | -8.83% |
| CN(Cc1nnc2n1CCC2)C(=O)Cc1ccc2c(c1)CCC2 | -6.67% |
| CC1=C(C(=O)NCc2cccnc2-n2cnc3ccccc32)OCCO1 | -0.825% |
| N#Cc1ccc(F)c(CN2CCc3sccc3C2)c1 | -5.04% |
| O=C1CCC[C@]2(CN(S(=O)(=O)N3CCCCC3)C[C@H]2c2cccnc2)N1 | -6.21% |
| CN(CC(=O)Nc1ccc(Br)cn1)C(=O)Cc1ccc(O)cc1 | -1.46% |
| Cc1cc(C(=O)N[C@@H]2CCC[C@@H](N3CCOCC3)[C@@H]2O)no1 | -6.42% |
| NS(=O)(=O)CC1CCCN(C(=O)CCCC2CCCC2)C1 (stereo not given) | -12.7% |
| NC(=O)C1CCCN1c1cc(N2CCc3ccccc3C2)ncn1 (stereo not given) | -5.82% |
| Cc1noc(C)c1-c1cccc(CC2CCN(C(=O)c3cscn3)C2)n1 (stereo not given) | -5.81% |
| COCCN1CCc2c(cnc(-c3ccoc3)c2C(=O)O)C1 | -12.1% |
| Cc1ccc(-c2nc(CN3CCOC(Cn4cccn4)C3)no2)cc1 (stereo not given) | -4.16% |

| Compound | cytotoxicity at 70.5 h |
| --- | --- |
| CCNc1nc(C)c(C(=O)N2CCN(c3ncccc3C)CC2)s1 | -4.75% |
| CCN(CC)C(=O)C1CCN(C(=O)Nc2cccnc2OC)CC1 | 34.4% |
| CN1CCN(C(=O)[C@H]2C[C@@H]3CCN(c4ncc(F)cn4)C[C@@H]3O2)CC1 | -13.1% |
| CC(C)(O)CCc1cccc(C(=O)NCC2COCCO2)c1 (stereo not given) | -1.78% |
| COCCCC1(C(=O)O)CCCN(C(=O)c2ccc(C(C)C)[nH]c2=O)C1 (stereo not given) | -5.84% |
| O=C(c1cnc(C2CC2)s1)N1CCCC(n2cccn2)C1 (stereo not given) | -2.13% |
| CCN(Cc1nonc1C)C(=O)c1ccc(Br)o1 | -4.49% |
| O=C(c1cc[nH]n1)N1CCN(C(c2ccccc2)C(F)(F)F)CC1 (stereo not given) | -8.27% |
| N#Cc1c(-c2ccccc2)csc1N | -22.3% |
| c1ccc(-n2nc(CNC3CCc4ncnn4C3)c3c2CCC3)cc1 (stereo not given) | 9.35% |
| Cc1nc(N2CCCC2)nc(C)c1NS(C)(=O)=O | 0.704% |
| CC(C)C(NC(=O)NCc1cccnc1N(C)C)c1cccs1 (stereo not given) | -20.8% |
| CCC(C)NC(=O)CCc1ccc(OCC(F)(F)F)c(OC)c1 (stereo not given) | -14.7% |
| CN(c1ccc(C(=O)NCCCN2CCOCC2)c(Cl)c1)S(C)(=O)=O | -8.19% |
| COc1cccc(CN(C)C(C)c2nccs2)c1OCCn1ccnc1 (stereo not given) | -3.88% |
| CN(C)c1ccc(NC(=O)NCc2ccc(Cl)s2)cn1 | -7.08% |
| Cc1c(C(C)NCC2CCCC2)cnn1-c1ccc(F)cc1F (stereo not given) | -11.6% |
| Nc1nc(CN2CCCCC2Cn2cncn2)nc2ccccc12 (stereo not given) | 0.228% |
| Cc1nc(C)n(CC2CCCN2Cc2nc3ccccc3nc2C)n1 (stereo not given) | 3.65% |
| Cn1ccnc1CN1CC[C@@H]2[C@@H](CCC(=O)N2CCc2c[nH]cn2)C1 | 27.2% |
| CC(C)(C)c1n[nH]c(C2CN(C(=O)CCc3cccs3)CCO2)n1 (stereo not given) | -8.77% |
| CC(=O)NC1CCCc2c1[nH]c1ccc(F)cc21 (stereo not given) | 29.6% |
| COCC(C)NC(=O)c1nnn(-c2ccc(F)cc2)n1 (stereo not given) | -5.45% |

| Compound | cytotoxicity at 70.5 h |
| --- | --- |
| O=C(c1ccc(F)cc1)N1CCN2C[C@H](Oc3cccnc3)C[C@H]2C1 | 0.416% |
| Cc1nc[nH]c1CN1CCOC(CCNC(=O)c2ccsc2)C1 (stereo not given) | 2.08% |
| C[C@@H]1CN(Cc2cc(C3CCCCC3)no2)CC[C@]1(C)O | -6.92% |
| CCC(CC)CN1CCC2(CCCN(c3ncccn3)C2)C1 (stereo not given) | 25.1% |
| COc1cccnc1-c1ccc(F)c2c1OC(CN)C2 (stereo not given) | 3.56% |
| O=C(Cc1ccsc1)N1CCC(c2n[nH]c3nccnc23)CC1 | -8.21% |
| Cc1nsc(NC(=O)N2CCN(Cc3ccc(F)cc3)C(=O)C2)n1 | -13.5% |
| CN(C)CCN(Cc1cccnc1)C(=O)c1ccn(-c2ccccc2)n1 | -3.54% |
| Cc1ncsc1CN1CCN(C2CCOCC2)CC(C(N)=O)C1 (stereo not given) | 10.5% |
| COCCC1COC2(CCN(C(=O)c3ccco3)CC2)C1 (stereo not given) | -5.74% |
| CCCN1CCCN(S(=O)(=O)c2cnc3onc(C)c3c2)CC1 | 2.21% |
| CCn1c(N)nc2cc(C(=O)NCCc3nnc(C)s3)cnc21 | -24.8% |
| CCS(=O)(=O)NCC1Cn2nnc(-c3ccccc3)c2CO1 (stereo not given) | -1.57% |
| Cc1cccc(COC[C@]23COC[C@H]2CN(c2ncccn2)C3)n1 | -10.2% |
| Nc1cc(-c2cc(O)cc(C(=O)O)c2)c2cc[nH]c2n1 | -10.3% |
| CC(C)c1cc(N2CCC(C(C)N3CCCC3)CC2)n2nccc2n1 (stereo not given) | -3.16% |
| COc1ccccc1OCCCc1cccc(C#N)n1 | -1.85% |
| COCCN1CCN(Cc2ccoc2)Cc2cccnc21 | 6.66% |
| CCCSc1ncc(CN2CCN(C)C(=O)C2C)cn1 (stereo not given) | 20.3% |
| COc1cccc(NC(=O)NCc2cnn(C)c2)c1 | -7.74% |
| Cc1cc(C)c2nc(CN3CCC(CN)C3)cc(O)c2c1 (stereo not given) | 6.13% |
| Cc1cc2cccc(C(=O)N3CC[C@@H](N)[C@H](O)C3)c2o1 | -9.95% |
| Cc1ccccc1SC1CCN(C(=O)CCCS(N)(=O)=O)CC1 | -5.95% |

| Compound | cytotoxicity at 70.5 h |
| --- | --- |
| COCC(C)NC(=O)c1cc(Br)c2c(c1)OCCO2 (stereo not given) | -10.9% |
| CC(=O)N1CC(c2ncn(C(C)C)n2)c2cc(C(=O)NC(C)C)ccc21 (stereo not given) | -4.9% |
| Cn1cccc1-c1cc(C(=O)N2CCCC2c2ccc(C(N)=O)s2)[nH]n1 (stereo not given) | -2.9% |
| Cc1ccc(CN2CCc3nnc(COCCN(C)C)n3CC2)o1 | -11.2% |
| O=S(=O)(Nc1ccc(N2CCOCC2)cc1)c1cccc(F)c1 | -1.37% |
| O=c1n(CCSCc2ccccc2Br)nc2ccccn12 | 4.82% |
| CS(=O)(=O)N(Cc1ccon1)c1cccc(Br)c1 | -1.5% |
| Cn1ncc(NC(=O)c2noc3c2CCCC3)c1C(=O)N1CCCCC1 | -6.23% |
| COc1ccc(C(=O)N2CCCCC2Cn2cccn2)c(F)c1 (stereo not given) | -13.3% |
| CN(C)Cc1cnc2n1CCN(C(=O)NCc1ccccc1)CC2 | 4.32% |
| Cc1cc(C)n(CC2CN(CC(=O)N3CCNC3=O)CCO2)n1 (stereo not given) | -1.37% |
| CC(C)[C@H]1CN(Cc2ccccc2C#N)C[C@@H]1NC(=O)C1CCOCC1 | -13.1% |
| CC(C)CCn1c(=O)n(CCn2cccc2)c2cc(C(=O)O)cnc21 | -7.02% |
| CCn1cnnc1CNC(=O)N(C)Cc1ccc2c(c1)OCO2 | -10.2% |
| CS(=O)(=O)NC1CCN(C(=O)c2coc(CN3CCOCC3)c2)CC1 | -2.89% |
| COc1ccccc1OCC(=O)NS(=O)(=O)c1ccc(Cl)s1 | -2.89% |
| O=C(CC1COCCN1)NCCc1nc(Cc2ccccc2)no1 (stereo not given) | -15.5% |
| COc1ccccc1OC1CN(c2ccncc2)C1 | -4.23% |
| Cc1cnn(CC2CCCCN2C(=O)Cc2csc(C)n2)c1 (stereo not given) | -7.78% |
| CCn1cnnc1CNC(=O)N1CCOCC1 | -13.2% |
| Cn1cc(N2CCCC(NCc3cccc4c3OCCCO4)C2)cn1 (stereo not given) | -14.6% |
| COc1ccnc(NCc2ccccc2Cn2cccn2)n1 | -1.62% |
| Cc1cnn(CC2CCCN2Cc2ncc(-c3ccccc3)o2)c1 (stereo not given) | -18.8% |

| Compound | cytotoxicity at 70.5 h |
| --- | --- |
| CC(CCS(C)(=O)=O)NC(=O)NCc1ccc2c(c1)CCC2 (stereo not given) | -6.48% |
| O=C(CN1CCc2cncnc2C1)NCCOc1ccccc1 | -5.53% |
| Cc1nn(CCC#N)c(C)c1CCC(=O)N(C(C)C)C1CC1 | -10.9% |
| Cn1cc(CN2CCc3onc(C(=O)N4CCCC4)c3C2)cn1 | 5.88% |
| CCOc1ccc(NC(=O)c2scnc2CC)cc1CO | 1.88% |
| CN1CCC(CO[C@H]2CN(C(=O)c3cccn3C)[C@@H]3COC[C@H]23)CC1 | -11.6% |
| Cc1oc2c(c1C(=O)N1CC[C@H](O)[C@]3(CCCO3)C1)CCCC2 | -5.7% |
| N#Cc1cccc(N2CCCC3(C2)CN(c2nncs2)CCO3)c1 (stereo not given) | 14% |
| O=C(CCn1cncn1)NCC1CCS(=O)(=O)C1 (stereo not given) | -12.4% |
| Cc1cccc(N2CCN(CCC(=O)NCc3cccnc3)CC2)c1 | -0.687% |
| O=C(CCc1c(F)cccc1F)N1CCCCC1Cn1cccn1 (stereo not given) | 1.38% |
| CS(=O)(=O)N1CC[C@]2(C[C@@H](OCC3CCC3)CO2)C1 | -12.4% |
| Cn1nc(-c2ccc(Cl)cc2)c(Br)c1C(=O)O | -23.3% |
| CCCc1nnc(NCCc2noc(C3CC3)n2)o1 | -9.24% |
| COc1cc(C(C)=O)ccc1OCCNCc1ccco1 | -3.22% |
| CC(C)CCC(=O)N1CCCC2(CCN(Cc3ccccc3C#N)C2)C1 (stereo not given) | -5.13% |
| CCOc1ccc(S(=O)(=O)NCc2cccnc2N(C)C)cc1 | 52.9% |
| CC(C)n1cnc2c1C(C(=O)N1CCCC1)N(CC1CC1)CC2 (stereo not given) | -1.74% |
| CC1(C)COCCN1C(=O)c1ccc(Cn2cncn2)cc1 | -9.35% |
| CCCn1cc(-c2cc(C(=O)N(C)C)c3ccc(OC)cc3n2)cn1 | -3.58% |
| CCN(Cc1ccc(F)cc1Cl)C1CCS(=O)(=O)C1 (stereo not given) | -19.3% |
| COCC(=O)N1CCCC2(CCN(c3ccccc3)C2=O)C1 (stereo not given) | -13.1% |
| Cc1nn(CCc2nnc(NCC(C)C)s2)c(C)c1Br | -16% |
